From patent US20240270762A1, “PENICILLIN-BINDING PROTEIN INHIBITORS” (priority 2021, published 2024)
Converted amounts (≈) assume the structure as drawn.

Experiments:
[1] = target: T1, PBP3 from Pseudomonas aeruginosa (PAO1) (Pseudomonas aeruginosa, UniProt G3XD46); experiment: Bocillin-FL fluorescence polarization competition binding, P. aeruginosa PBP3; conditions: Binding affinity to P. aeruginosa PBP3; fluorescence polarization competition binding assay using Bocillin-FL; read-out: P. aeruginosa PBP3 Potency
T1 construct: made in house
T1 sequence (G3XD46 whole entry): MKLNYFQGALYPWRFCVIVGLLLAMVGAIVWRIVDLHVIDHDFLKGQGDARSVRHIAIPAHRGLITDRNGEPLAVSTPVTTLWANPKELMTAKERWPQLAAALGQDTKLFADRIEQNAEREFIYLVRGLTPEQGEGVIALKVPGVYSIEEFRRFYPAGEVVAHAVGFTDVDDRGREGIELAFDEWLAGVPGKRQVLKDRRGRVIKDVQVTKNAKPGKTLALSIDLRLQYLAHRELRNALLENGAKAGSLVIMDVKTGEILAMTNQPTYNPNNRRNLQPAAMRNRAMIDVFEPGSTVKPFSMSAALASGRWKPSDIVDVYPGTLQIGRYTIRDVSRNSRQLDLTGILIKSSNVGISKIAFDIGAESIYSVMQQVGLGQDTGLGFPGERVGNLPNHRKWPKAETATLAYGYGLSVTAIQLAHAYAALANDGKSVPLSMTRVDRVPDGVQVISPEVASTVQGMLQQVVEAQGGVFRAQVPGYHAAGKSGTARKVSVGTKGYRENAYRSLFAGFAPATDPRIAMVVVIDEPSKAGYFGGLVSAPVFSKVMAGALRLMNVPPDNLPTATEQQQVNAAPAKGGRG
Outline: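 Purified PBPs pre-incubated with inhibitor (E. coli PBP3 1.5 μM, 30 min; P. aeruginosa PBP3 0.75 μM, A. baumannii PBP1a 1 μM and PBP3 0.2 μM, 15 min), then Bocillin-FL 0.1 μM (0.05 μM for PBP1a) added; FP read up to 60 min. EC50 = concentration halving bound Bocillin-FL.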

[2] = tested on: E. coli ATCC 25922; experiment: microbe, parasite or virus in culture; type: cell-based; conditions: Escherichia coli, ATCC25922, read-out: MIC E. coli 25922
[3] = tested on: E. coli 901C; experiment: microbe, parasite or virus in culture; type: cell-based; conditions: Escherichia coli, read-out: MIC E. coli 901C
[4] = tested on: E. coli AG100A; experiment: Broth microdilution MIC in CAMHB; type: cell-based; conditions: Escherichia coli, read-out: MIC E. coli AG100A
[5] = tested on: K. pneumoniae 848844; experiment: microbe, parasite or virus in culture; type: cell-based; conditions: Klebsiella pneumoniae, 848844, read-out: MIC K. pneumoniae 848844
[6] = tested on: K. pneumoniae UMM; experiment: microbe, parasite or virus in culture; type: cell-based; conditions: Klebsiella pneumoniae, read-out: MIC K. pneumoniae UMM
[7] = tested on: K. pneumoniae SI-117; experiment: microbe, parasite or virus in culture; type: cell-based; conditions: Klebsiella pneumoniae, SI117, read-out: MIC K. pneumoniae SI-117
[8] = tested on: P. aeruginosa ATCC 27853; experiment: microbe, parasite or virus in culture; type: cell-based; conditions: Pseudomonas aeruginosa, ATCC27853, read-out: MIC P. aeruginosa ATCC 27853
[9] = tested on: A. baumannii ATCC 19606; experiment: microbe, parasite or virus in culture; type: cell-based; conditions: Acinetobacter baumannii, ATCC19606, read-out: MIC, A. baumannii ATCC 19606
[10] = tested on: P. aeruginosa ATCC 35151; experiment: microbe, parasite or virus in culture; type: cell-based; conditions: Pseudomonas aeruginosa, ATCC35151, read-out: MIC P. aeruginosa ATCC 35151
[11] = tested on: N. gonorrhoeae ATCC 49226; experiment: Liquid broth MIC in Fastidious broth; conditions: Neisseria gonorrhoeae, ATCC49226, read-out: Minimum Inhibitory Concentration (MIC), N. gonorrhoeae ATCC 49226
[12] = tested on: N. gonorrhoeae FA1090; experiment: Liquid broth MIC in Fastidious broth; conditions: Neisseria gonorrhoeae, FA1090, read-out: Minimum Inhibitory Concentration (MIC), N. gonorrhoeae FA 1090
[13] = tested on: N. gonorrhoeae WHO L; experiment: Liquid broth MIC in Fastidious broth; conditions: Neisseria gonorrhoeae, read-out: Minimum Inhibitory Concentration (MIC), N. gonorrhoeae WHO L
[14] = tested on: N. gonorrhoeae WHO K; experiment: Liquid broth MIC in Fastidious broth; conditions: Neisseria gonorrhoeae, read-out: Minimum Inhibitory Concentration (MIC), N. gonorrhoeae WHO K
[15] = tested on: N. gonorrhoeae WHO Q; experiment: Liquid broth MIC in Fastidious broth; conditions: Neisseria gonorrhoeae, read-out: Minimum Inhibitory Concentration (MIC), N. gonorrhoeae WHO Q
[16] = tested on: N. gonorrhoeae CDC-0197; experiment: Liquid broth MIC in Fastidious broth; conditions: Neisseria gonorrhoeae, CDC0197, read-out: Minimum Inhibitory Concentration (MIC), N. gonorrhoeae CDC-0197

Structure (SMILES)	IC50 [1]	MIC [2]	MIC [3]	MIC [4]	MIC [5]	MIC [6]	MIC [7]	MIC [8]	MIC [9]	MIC [10]	MIC [11]	MIC [12]	MIC [13]	MIC [14]	MIC [15]	MIC [16]
O=C(O)c1cccc2c1OB(O)[C@@H](NC(=O)C(NC(=O)C1CC1)c1ccc(P(=O)(O)O)cc1)C2 (stereo partly drawn) [Example 30, (3R)-3-(2-(cyclopropanecarboxamido)-2-(4-phosphonophenyl)acetamido)-2-hydroxy-3,4-dihydro-2H-benzo[e][1,2]oxaborinine-8-carboxylic acid]	50 to 250 µM	> 128 µg/mL	8 to 16 µg/mL (≈ 16.4 to 32.8 µM)	> 128 µg/mL	> 128 µg/mL	> 128 µg/mL	> 128 µg/mL	> 128 µg/mL	> 128 µg/mL	8 to 16 µg/mL (≈ 16.4 to 32.8 µM)	16 to 32 µg/mL (≈ 32.8 to 65.5 µM)	4 to 8 µg/mL (≈ 8.19 to 16.4 µM)	16 to 32 µg/mL (≈ 32.8 to 65.5 µM)	16 to 32 µg/mL (≈ 32.8 to 65.5 µM)	16 to 32 µg/mL (≈ 32.8 to 65.5 µM)	16 to 32 µg/mL (≈ 32.8 to 65.5 µM)
O=C(O)c1cccc2c1OB(O)[C@@H](NC(=O)C(NC(=O)C1CCCCC1)c1ccc(P(=O)(O)O)cc1)C2 (stereo partly drawn) [Example 31, (3R)-3-(2-(cyclohexanecarboxamido)-2-(4-phosphonophenyl)acetamido)-2-hydroxy-3,4-dihydro-2H-benzo[e][1,2]oxaborinine-8-carboxylic acid]	10 to 50 µM	> 128 µg/mL	32 to 64 µg/mL (≈ 60.3 to 121 µM)	> 128 µg/mL	> 128 µg/mL	> 128 µg/mL	> 128 µg/mL	> 128 µg/mL	> 128 µg/mL	2 to 4 µg/mL (≈ 3.77 to 7.54 µM)	16 to 32 µg/mL (≈ 30.2 to 60.3 µM)	4 to 8 µg/mL (≈ 7.54 to 15.1 µM)	16 to 32 µg/mL (≈ 30.2 to 60.3 µM)	16 to 32 µg/mL (≈ 30.2 to 60.3 µM)	16 to 32 µg/mL (≈ 30.2 to 60.3 µM)	16 to 32 µg/mL (≈ 30.2 to 60.3 µM)
O=C(NC(C(=O)N[C@H]1Cc2cccc(C(=O)O)c2OB1O)c1ccc(P(=O)(O)O)cc1)c1ccccn1 (stereo partly drawn) [Example 32, (3R)-2-hydroxy-3-(2-(4-phosphonophenyl)-2-(picolinamido)acetamido)-3,4-dihydro-2H-benzo[e][1,2]oxaborinine-8-carboxylic acid]	< 10 µM	> 128 µg/mL	2 to 4 µg/mL (≈ 3.81 to 7.62 µM)	32 to 64 µg/mL (≈ 60.9 to 122 µM)	> 128 µg/mL	> 128 µg/mL	> 128 µg/mL	> 128 µg/mL	> 128 µg/mL	2 to 4 µg/mL (≈ 3.81 to 7.62 µM)	1 to 2 µg/mL (≈ 1.9 to 3.81 µM)	< 1 µg/mL	16 to 32 µg/mL (≈ 30.5 to 60.9 µM)	4 to 8 µg/mL (≈ 7.62 to 15.2 µM)	1 to 2 µg/mL (≈ 1.9 to 3.81 µM)	1 to 2 µg/mL (≈ 1.9 to 3.81 µM)
CC(=O)N1CCC[C@@H]1C(=O)N[C@H](C(=O)N[C@H]1Cc2cccc(C(=O)O)c2OB1O)c1ccc(P(=O)(O)O)cc1 [Example 33, (3R)-3-(2-((R)-1-acetylpyrrolidine-2-carboxamido)-2-(4-phosphonophenyl)acetamido)-2-hydroxy-3,4-dihydro-2H-benzo[e][1,2]oxaborinine-8-carboxylic acid]	10 to 50 µM	> 128 µg/mL	32 to 64 µg/mL (≈ 57.2 to 114 µM)	> 128 µg/mL	> 128 µg/mL	> 128 µg/mL	> 128 µg/mL	> 128 µg/mL	> 128 µg/mL	8 to 16 µg/mL (≈ 14.3 to 28.6 µM)	16 to 32 µg/mL (≈ 28.6 to 57.2 µM)	4 to 8 µg/mL (≈ 7.15 to 14.3 µM)	16 to 32 µg/mL (≈ 28.6 to 57.2 µM)	16 to 32 µg/mL (≈ 28.6 to 57.2 µM)	16 to 32 µg/mL (≈ 28.6 to 57.2 µM)	16 to 32 µg/mL (≈ 28.6 to 57.2 µM)
CS(=O)(=O)N1CCC[C@@H]1C(=O)N[C@H](C(=O)N[C@H]1Cc2cccc(C(=O)O)c2OB1O)c1ccc(P(=O)(O)O)cc1 [Example 34, (R)-2-hydroxy-3-((S)-2-((R)-1-(methylsulfonyl)pyrrolidine-2-carboxamido)-2-(4-phosphonophenyl)acetamido)-3,4-dihydro-2H-benzo[e][1,2]oxaborinine-8-carboxylic acid]	50 to 250 µM	> 128 µg/mL	8 to 16 µg/mL (≈ 13.4 to 26.9 µM)	> 128 µg/mL	> 128 µg/mL	> 128 µg/mL	> 128 µg/mL	> 128 µg/mL	> 128 µg/mL	8 to 16 µg/mL (≈ 13.4 to 26.9 µM)	16 to 32 µg/mL (≈ 26.9 to 53.8 µM)	4 to 8 µg/mL (≈ 6.72 to 13.4 µM)	16 to 32 µg/mL (≈ 26.9 to 53.8 µM)	16 to 32 µg/mL (≈ 26.9 to 53.8 µM)	16 to 32 µg/mL (≈ 26.9 to 53.8 µM)	16 to 32 µg/mL (≈ 26.9 to 53.8 µM)
CS(=O)(=O)N1CCC[C@@H]1C(=O)N[C@@H](C(=O)N[C@H]1Cc2cccc(C(=O)O)c2OB1O)c1ccc(P(=O)(O)O)cc1 [Example 35, (R)-2-hydroxy-3-((R)-2-((R)-1-(methylsulfonyl)pyrrolidine-2-carboxamido)-2-(4-phosphonophenyl)acetamido)-3,4-dihydro-2H-benzo[e][1,2]oxaborinine-8-carboxylic acid]	< 10 µM	> 128 µg/mL	8 to 16 µg/mL (≈ 13.4 to 26.9 µM)	> 128 µg/mL	> 128 µg/mL	> 128 µg/mL	> 128 µg/mL	> 128 µg/mL	> 128 µg/mL	2 to 4 µg/mL (≈ 3.36 to 6.72 µM)	1 to 2 µg/mL (≈ 1.68 to 3.36 µM)	< 1 µg/mL	16 to 32 µg/mL (≈ 26.9 to 53.8 µM)	4 to 8 µg/mL (≈ 6.72 to 13.4 µM)	4 to 8 µg/mL (≈ 6.72 to 13.4 µM)	4 to 8 µg/mL (≈ 6.72 to 13.4 µM)
O=C(O)c1cccc2c1OB(O)[C@@H](NC(=O)[C@@H](NC(=O)N1CCCCC1=O)c1ccc(P(=O)(O)O)cc1)C2 [Example 36, (R)-2-hydroxy-3-((S)-2-(2-oxopiperidine-1-carboxamido)-2-(4-phosphonophenyl)acetamido)-3,4-dihydro-2H-benzo[39e][1,2]oxaborinine-8-carboxylic acid]	50 to 250 µM	> 128 µg/mL	8 to 16 µg/mL (≈ 14.7 to 29.3 µM)	> 128 µg/mL	> 128 µg/mL	> 128 µg/mL	> 128 µg/mL	> 128 µg/mL	> 128 µg/mL	8 to 16 µg/mL (≈ 14.7 to 29.3 µM)	16 to 32 µg/mL (≈ 29.3 to 58.7 µM)	1 to 2 µg/mL (≈ 1.83 to 3.67 µM)	16 to 32 µg/mL (≈ 29.3 to 58.7 µM)	16 to 32 µg/mL (≈ 29.3 to 58.7 µM)	16 to 32 µg/mL (≈ 29.3 to 58.7 µM)	16 to 32 µg/mL (≈ 29.3 to 58.7 µM)
O=C(O)c1cccc2c1OB(O)[C@@H](NC(=O)[C@H](NC(=O)N1CCCCC1=O)c1ccc(P(=O)(O)O)cc1)C2 [Example 37, (R)-2-hydroxy-3-((R)-2-(2-oxopiperidine-1-carboxamido)-2-(4-phosphonophenyl)acetamido)-3,4-dihydro-2H-benzo[e][1,2]oxaborinine-8-carboxylic acid]	< 10 µM	> 128 µg/mL	< 1 µg/mL	32 to 64 µg/mL (≈ 58.7 to 117 µM)	> 128 µg/mL	> 128 µg/mL	> 128 µg/mL	> 128 µg/mL	> 128 µg/mL	< 1 µg/mL	< 1 µg/mL	< 1 µg/mL	16 to 32 µg/mL (≈ 29.3 to 58.7 µM)	4 to 8 µg/mL (≈ 7.34 to 14.7 µM)	1 to 2 µg/mL (≈ 1.83 to 3.67 µM)	1 to 2 µg/mL (≈ 1.83 to 3.67 µM)
